Laboratory results taken from ChEMBL document CHEMBL1143923, “Synthesis, anti-HIV-1 activity, and modeling studies of N-3 Boc TSAO compound” (Bioorg Med Chem Lett, 2008).
One block for each molecule: values may come before it. The source made the active and inactive calls. The calls are words filed in the database; no cut-off is given here.

Experiments:
[1] = system: Human immunodeficiency virus 1; experiment: Antiviral activity against HIV1 3B in CEM cells assessed as inhibition of viral replication; type: functional, organism-based; settings: Human immunodeficiency virus 1, 3B, CCRF-CEM
[2] = system: Human immunodeficiency virus 2; experiment: Antiviral activity against HIV2 ROD in CEM cells assessed as inhibition of viral replication; type: functional, organism-based; settings: CCRF-CEM
[3] = Cytotoxicity against human CEM cells; type: cell-based; settings: CEM (CCRF-CEM) cells

EC50 [1]: 23 nM
Compound: Cc1cn([C@@H]2O[C@H](CO[Si](C)(C)C(C)(C)C)[C@@]3(OS(=O)(=O)C=C3N)[C@H]2O[Si](C)(C)C(C)(C)C)c(=O)n(C(=O)OC(C)(C)C)c1=O
Activity [2]: inactive
CC50 [3]: 26200 nM

Compound: Cc1cn([C@@H]2O[C@H](CO[Si](C)(C)C(C)(C)C)[C@@]3(OS(=O)(=O)C=C3N)[C@H]2O[Si](C)(C)C(C)(C)C)c(=O)n(C)c1=O
EC50 [1]: 130 nM
Activity [2]: inactive

Compound: Cc1cn([C@@H]2O[C@H](CO[Si](C)(C)C(C)(C)C)[C@@]3(OS(=O)(=O)C=C3N)[C@H]2O[Si](C)(C)C(C)(C)C)c(=O)[nH]c1=O
EC50 [1]: 60 nM
Activity [2]: inactive
